Values quoted from earlier work as cited in US20090252757A1, “METHODS AND COMPOSITIONS FOR INHIBITING HIV INFECTION” (IRM LLC, priority 2005, published 2009).

Molecular target: MLK3 (Homo sapiens, UniProt Q16584)
Conditions: Roux et al., J. Biol. Chem. 277:49473-80, 2002

Sequence of MLK3 (Q16584 whole entry): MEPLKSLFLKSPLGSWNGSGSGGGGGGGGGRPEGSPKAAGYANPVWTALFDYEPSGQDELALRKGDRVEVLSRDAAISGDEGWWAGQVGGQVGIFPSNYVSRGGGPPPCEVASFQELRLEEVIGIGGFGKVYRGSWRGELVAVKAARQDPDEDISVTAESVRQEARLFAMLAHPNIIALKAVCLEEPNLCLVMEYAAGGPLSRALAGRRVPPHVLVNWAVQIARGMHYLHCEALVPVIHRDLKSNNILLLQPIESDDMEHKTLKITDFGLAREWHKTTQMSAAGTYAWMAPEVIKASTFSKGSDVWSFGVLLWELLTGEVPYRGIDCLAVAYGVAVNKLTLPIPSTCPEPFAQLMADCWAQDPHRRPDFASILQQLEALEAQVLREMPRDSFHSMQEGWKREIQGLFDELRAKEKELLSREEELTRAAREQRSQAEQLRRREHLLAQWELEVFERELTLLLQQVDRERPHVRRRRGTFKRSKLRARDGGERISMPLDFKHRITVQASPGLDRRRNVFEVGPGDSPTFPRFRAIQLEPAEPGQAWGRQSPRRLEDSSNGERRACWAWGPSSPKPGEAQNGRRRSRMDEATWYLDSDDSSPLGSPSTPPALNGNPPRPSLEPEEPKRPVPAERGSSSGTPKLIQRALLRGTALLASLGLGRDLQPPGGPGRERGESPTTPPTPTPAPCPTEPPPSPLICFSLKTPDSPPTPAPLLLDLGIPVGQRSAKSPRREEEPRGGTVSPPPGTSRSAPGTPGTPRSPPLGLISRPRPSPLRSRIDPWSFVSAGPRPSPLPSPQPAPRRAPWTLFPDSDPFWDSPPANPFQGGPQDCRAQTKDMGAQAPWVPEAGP

Compound: CCSCc1ccc2c(c1)c1c3c(c4c5cc(CSCC)ccc5n5c4c1n2[C@H]1C[C@](O)(C(=O)OC)[C@]5(C)O1)CNC3=O [CEP1347]
- inhibition of MLK3 kinase activity: inhibit the kinase activity of MLK3
